# Laboratory results published in publication PMC2362735, “New semisynthetic vinca alkaloids: chemical, biochemical and cellular studies” (British Journal of Cancer, 1999).
# Where two headings read alike, the source gives them in different places.
# Legend:
# [1] = tested on: Mouse leukaemia P388 cells; test: In vivo anti-tumour effect on P388 mouse leukaemia, single i.p. dose; conditions: for Dose (mg kg-1) giving the maximal effect: P388, single doses i.p.; for Maximal effect T/C (%): P388, single doses i.p. 24 h after transplantation, median survival treated/control x 100, six animals per group
# Source text: (§1) The numerous antimitotic drugs already developed and therapeu- tically used for a large number of pathologies belong to different classes based on their chemical structure and other distinctive features. Antimitotic drugs usually target the tubulin/microtubule network of the cytoskeleton that is formed by assembly of cyto- plasmic tubulin dimers. The stability of the different microtubular structures varies considerably; some of their functions depend on their lability. The lability is augmented by the extreme sensitivity to various drugs. Several synthetic and natural compounds interact specifically with tubulin and/or microtubule, fundamentally destroying its dynamic character and leading to cell death. […] Because of their extensive clinical use, it is important to synthesize additional agents having at least the same biological activity. […] Nevertheless, it is unclear yet how the anti-calmodulin activity of these drugs is related to their desired and undesired pharmacological effects. […] The synthesis of the KAR derivatives are presented. […] Taxol, GTP and trifluoperazine were purchased from Sigma. All organic reagents for synthesis of the new compounds were obtained from Aldrich and were of the highest grade. All other chemicals were reagent grade commercial preparations. […] Tubulin was stored in 1 M sucrose, 10 mM sodium phosphate buffer, 0.5 mM magnesium chloride and 0.1 mM GTP, pH 7.0, at -80C and dialysed against the appropriate buffer before use. […] PFK, aldolase and glycerol-3-phosphate dehydrogenase- triosephosphate isomerase purified from rabbit skeletal muscle were purchased in ammonium sulphate suspensions from Sigma or Boehringer. The enzyme suspensions were centrifuged at 10 000g for 5 min. The pellets were suspended in the appropriate buffer, then the enzymes were gel filtered or dialysed in the same buffer to remove ammonium sulphate. […] (Figure 1B; R1 , CH3; R2 , CH2 CH2 Cl). […] After 2 h incubation at room temperature, 200 ml dried toluene was added to the reaction mixture. […] The mixture was stirred for 30 min. After separation of the organic phase, it was washed with water (3 x 30 ml) and dried with potassium sulphate and evaporated on a water bath of 35-40C at 20-27 hPa. The resulting material was chromatographed on silica gel (500 g, bead size of 0.040- 0.063 mm) column (30 mm x 500 mm) using ethyl acetate/ethanol (9:1) mixture as eluent. […] The mixture was kept for 4 h at room temperature and then evaporated on a water bath at 40C under a vacuum of 80 hPa to a final volume of 5-6 ml. […] (Figure 1B, R1 , CHO; R2 , CH2 CH2 Cl). […] Synthesis of KAR-4 [3-allyl-2,4-dioxo-3,5-spiro-oxazolidino- 4-deacetoxy-vinblastine] (Figure 1B; R1 , CH3; R2 , CH2 CH=CH2 ). […] NMR measurements were carried out on a Varian Unity plus-500 instrument (500 MHz for 1H and 125 MHz for 13C) in DMSO. Chemical shifts were determined relative to dTMS = 0.00 p.p.m. 1H and 13C signal assignments were verified by a concerted use of two-dimensional 1H-1H and 1H-13C shift correlation methods (DQFCOSY, HSQC, HMBC) and NOESY experiments. The gradient-enhanced DQFCOSY, HSQC, HMBC and NOESY experiments were recorded by using the standard spectrometer software package. A mixing time of tmix = 0.5 s was used for the NOESY experiments.
# [2] = tested on: Mouse Ehrlich ascites tumour cells; test: In vivo anti-tumour effect on Ehrlich ascites carcinoma, single i.p. dose 4 days after transplantation
# Source text: as §1
# [3] = tested on: Human neuroblastoma cell line (SH-SY5Y); test: Microculture tetrazolium assay (MTA), cytotoxicity
# Source text: as §1
# [4] = tested on: tubulin; test: Taxol-induced tubulin polymerization, turbidity at 350 nm; format: biochemical, calf; conditions: taxol-induced assembly, MES buffer pH 6.8, 37C; average of three independent measurements; read-out: Anti-tubulin effect, turbidity at 350 nm, IC50
# Source text: as §1
# [5] = target: T1, calmodulin (Bos taurus, UniProt P62157); test: Anti-calmodulin activity assay: calmodulin-induced PFK inactivation; format: biochemical, bovine; conditions: drug 20 M; for Effect on calmodulin induced PFK inactivation: Activity (U mg-1): PFK 1.2 M protomers, calmodulin 3 M, 60 min, without calmodulin 66.6 U mg-1, with calmodulin 8.0 U mg-1; for Anti-calmodulin activity: Efficiency (%): calculated from the activity data (100% = PFK without calmodulin, 0% = PFK with calmodulin)
# T1 construct: Calmodulin from bovine brain was purified to homogeneity using Phenyl-Sepharose (Pharmacia) chromatography; from tissue; host or cells: bovine brain
# Source text: The numerous antimitotic drugs already developed and therapeu- tically used for a large number of pathologies belong to different classes based on their chemical structure and other distinctive features. Antimitotic drugs usually target the tubulin/microtubule network of the cytoskeleton that is formed by assembly of cyto- plasmic tubulin dimers. The stability of the different microtubular structures varies considerably; some of their functions depend on their lability. The lability is augmented by the extreme sensitivity to various drugs. Several synthetic and natural compounds interact specifically with tubulin and/or microtubule, fundamentally destroying its dynamic character and leading to cell death. […] Because of their extensive clinical use, it is important to synthesize additional agents having at least the same biological activity. […] Nevertheless, it is unclear yet how the anti-calmodulin activity of these drugs is related to their desired and undesired pharmacological effects. […] The synthesis of the KAR derivatives are presented. […] Taxol, GTP and trifluoperazine were purchased from Sigma. All organic reagents for synthesis of the new compounds were obtained from Aldrich and were of the highest grade. All other chemicals were reagent grade commercial preparations. […] Tubulin was stored in 1 M sucrose, 10 mM sodium phosphate buffer, 0.5 mM magnesium chloride and 0.1 mM GTP, pH 7.0, at -80C and dialysed against the appropriate buffer before use. […] PFK, aldolase and glycerol-3-phosphate dehydrogenase- triosephosphate isomerase purified from rabbit skeletal muscle were purchased in ammonium sulphate suspensions from Sigma or Boehringer. The enzyme suspensions were centrifuged at 10 000g for 5 min. The pellets were suspended in the appropriate buffer, then the enzymes were gel filtered or dialysed in the same buffer to remove ammonium sulphate. […] (Figure 1B; R1 , CH3; R2 , CH2 CH2 Cl). […] After 2 h incubation at room temperature, 200 ml dried toluene was added to the reaction mixture. […] The mixture was stirred for 30 min. After separation of the organic phase, it was washed with water (3 x 30 ml) and dried with potassium sulphate and evaporated on a water bath of 35-40C at 20-27 hPa. The resulting material was chromatographed on silica gel (500 g, bead size of 0.040- 0.063 mm) column (30 mm x 500 mm) using ethyl acetate/ethanol (9:1) mixture as eluent. […] The mixture was kept for 4 h at room temperature and then evaporated on a water bath at 40C under a vacuum of 80 hPa to a final volume of 5-6 ml. […] (Figure 1B, R1 , CHO; R2 , CH2 CH2 Cl). […] Synthesis of KAR-4 [3-allyl-2,4-dioxo-3,5-spiro-oxazolidino- 4-deacetoxy-vinblastine] (Figure 1B; R1 , CH3; R2 , CH2 CH=CH2 ). […] NMR measurements were carried out on a Varian Unity plus-500 instrument (500 MHz for 1H and 125 MHz for 13C) in DMSO. Chemical shifts were determined relative to dTMS = 0.00 p.p.m. 1H and 13C signal assignments were verified by a concerted use of two-dimensional 1H-1H and 1H-13C shift correlation methods (DQFCOSY, HSQC, HMBC) and NOESY experiments. The gradient-enhanced DQFCOSY, HSQC, HMBC and NOESY experiments were recorded by using the standard spectrometer software package. A mixing time of tmix = 0.5 s was used for the NOESY experiments. […] Mass spectrum was recorded on a Kratos MS 80 instrument using FAB.
# [6] = tested on: Mouse leukaemia P388 cells; design: method as in Orosz et al (1997a); conditions: P388, single doses i.p.; data published also in ref Orosz et al (1997a); cited from earlier work
# [7] = target: Phosphofructokinase [ATP: D-fructose 6-phosphate 1-phospho-transferase, EC 2.7.1.11] from rabbit skeletal muscle (rabbit) (UniProt P00511)
# [8] = Table 2A, 40 mg kg-1 single dose i.p.
# [9] = Table 2A, 40 mg kg-1 single dose i.p., sacrifice 8 days after implantation, control 5.33 ml
# [10] = read-out: Cytotoxicity MTA IC50, 4-day treatment, MTT
# [11] = Table 2B, 2 mg kg-1 single dose i.p.
# [12] = Table 2B, 5 mg kg-1 single dose i.p.
# [13] = Table 2B, 10 mg kg-1 single dose i.p.
# Chain of Phosphofructokinase [ATP: D-fructose 6-phosphate 1-phospho-transferase, EC 2.7.1.11] from rabbit skeletal muscle (rabbit) (P00511 whole entry): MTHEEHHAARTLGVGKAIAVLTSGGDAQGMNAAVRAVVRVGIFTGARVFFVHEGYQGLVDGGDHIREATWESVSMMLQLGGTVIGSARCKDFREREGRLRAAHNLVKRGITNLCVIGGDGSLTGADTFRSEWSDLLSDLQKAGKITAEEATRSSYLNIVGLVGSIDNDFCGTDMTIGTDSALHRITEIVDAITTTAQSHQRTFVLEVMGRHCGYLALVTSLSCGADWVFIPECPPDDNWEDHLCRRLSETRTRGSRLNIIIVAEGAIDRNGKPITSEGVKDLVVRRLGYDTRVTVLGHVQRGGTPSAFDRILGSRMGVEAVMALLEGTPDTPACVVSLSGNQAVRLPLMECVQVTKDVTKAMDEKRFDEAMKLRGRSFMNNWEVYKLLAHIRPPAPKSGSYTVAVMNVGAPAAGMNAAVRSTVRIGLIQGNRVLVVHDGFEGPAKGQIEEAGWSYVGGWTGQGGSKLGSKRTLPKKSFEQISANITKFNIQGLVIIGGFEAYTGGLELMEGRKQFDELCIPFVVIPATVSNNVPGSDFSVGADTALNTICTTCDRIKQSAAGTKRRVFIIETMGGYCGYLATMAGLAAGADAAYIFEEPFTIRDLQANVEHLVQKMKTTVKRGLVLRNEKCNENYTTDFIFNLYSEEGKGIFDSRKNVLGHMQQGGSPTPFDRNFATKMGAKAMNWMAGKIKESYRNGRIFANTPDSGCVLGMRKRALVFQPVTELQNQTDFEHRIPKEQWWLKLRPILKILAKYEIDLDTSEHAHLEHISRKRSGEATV
compound,measurement,setting,value
"CCC1(O)CC2CN(CCc3c([nH]c4ccccc34)C(C(=O)OC)(c3cc4c(cc3OC)N(C=O)C3C5(CC6(CC)C=CCN7CCC43C76)OC(=O)N(CCCl)C5=O)C2)C1 (centres unmarked) [KAR-3, 3-(-chloroethyl)-2,4-dioxo-3,5-spiro-oxazolidino-4-deacetoxy-vincristine]",Dose (mg kg-1) giving the maximal effect,[1],20 mg/kg
same,Maximal effect T/C (%),[1],187%
same,Cells ml-1 (per cent of control),[2]; [8],57 per cent of control
same,Total cells (per cent of control),[2]; [8],32 per cent of control
same,Volume of tumour per mouse,[2]; [9],3.00 mL
same,IC50,[3]; [10],3.1e-07 M
same,IC50,[4],136 nM
same,Effect on calmodulin induced PFK inactivation: Activity (U mg-1),[5],34.4 U mg-1
same,anti-calmodulin activity in the PFK assay (in words),[5],significant anti-calmodulin potency
same,reduction of the calmodulin-mediated inactivation of PFK,[5],about 50%
same,Anti-calmodulin activity: Efficiency (%),[5],45%
"CC[C@]1(O)C[C@H]2CN(CCc3c([nH]c4ccccc34)[C@@](C(=O)OC)(c3cc4c(cc3OC)N(C=O)[C@H]3[C@@](O)(C(=O)OC)[C@H](OC(C)=O)[C@]5(CC)C=CCN6CC[C@]43[C@@H]65)C2)C1 [Vincristine, vincristine, reference compound]",mortality of treated animals,"[2]; 15 mg kg-1 (highest dose) single dose i.p., three mice per group",death of two of the three treated animals
same,Total cells (per cent of control),"[2]; Table 2B, 1 mg kg-1 single dose i.p.",57 per cent of control
same,Volume of tumour per mouse,"[2]; Table 2B, 1 mg kg-1 single dose i.p., control 2.67 ml",2.00 mL
same,Cells ml-1 (per cent of control),[2]; [11],106 per cent of control
same,Total cells (per cent of control),[2]; [11],60 per cent of control
same,Volume of tumour per mouse,"[2]; Table 2B, 2 mg kg-1 single dose i.p., control 2.67 ml",1.50 mL
same,Cells ml-1 (per cent of control),[2]; [12],225 per cent of control
same,Total cells (per cent of control),[2]; [12],54 per cent of control
same,Volume of tumour per mouse,"[2]; Table 2B, 5 mg kg-1 single dose i.p., control 2.67 ml",0.64 mL
same,Cells ml-1 (per cent of control),[2]; [13],224 per cent of control
same,Total cells (per cent of control),[2]; [13],45 per cent of control
same,Volume of tumour per mouse,"[2]; Table 2B, 10 mg kg-1 single dose i.p., control 2.67 ml",0.53 mL
same,maximum dose that did not result in the death of the animals,"[2]; single dose i.p., Ehrlich ascites mice",10 mg/kg
same,IC50,"[3]; Homo sapiens, 96 h, read-out: Cytotoxicity MTA IC50",1.3e-08 M
same,IC50,"[3]; Homo sapiens, 96 h, read-out: Cytotoxicity MTA IC50 (M)",1.3e-08 M
same,IC50,[4],290 nM
same,Dose (mg kg-1) giving the maximal effect,[6],1 mg/kg
Calmodulin from bovine brain (from UniProt P62157 1-149) (natural protein),PFK activity after 60 min incubation with calmodulin and KAR-2 (calmodulin induced PFK inactivation),[7],11.1 U mg-1
same,PFK activity after 60 min incubation with calmodulin and KAR-3 (calmodulin induced PFK inactivation),[7],34.4 U mg-1
same,PFK activity after 60 min incubation with calmodulin and KAR-4 (calmodulin induced PFK inactivation),[7],10.9 U mg-1
same,PFK activity after 60 min incubation with calmodulin and trifluoperazine (calmodulin induced PFK inactivation),[7],46.1 U mg-1
same,efficiency of KAR-2 in suspending the calmodulin induced PFK inactivation,[7],5%
same,efficiency of KAR-3 in suspending the calmodulin induced PFK inactivation,[7],45%
same,efficiency of KAR-4 in suspending the calmodulin induced PFK inactivation,[7],5%
same,efficiency of trifluoperazine in suspending the calmodulin induced PFK inactivation,[7],65%
same,"residual PFK activity after 60 min incubation with calmodulin, no drug (66.6 U mg-1 without calmodulin)",[7],8 U mg-1
"C=CCN1C(=O)O[C@@]2(C[C@]3(CC)C=CCN4CC[C@@]5(c6cc([C@@]7(C(=O)OC)C[C@@H]8CN(CCc9c7[nH]c7ccccc97)C[C@](O)(CC)C8)c(OC)cc6N(C)[C@H]52)[C@@H]43)C1=O [KAR-4, 3-allyl-2,4-dioxo-3,5-spiro-oxazolidino-4-deacetoxy-vinblastine]",Dose (mg kg-1) giving the maximal effect,[1],40 mg/kg
same,Maximal effect T/C (%),[1],214%
same,Cells ml-1 (per cent of control),[2]; [8],90 per cent of control
same,Total cells (per cent of control),[2]; [8],57 per cent of control
same,Volume of tumour per mouse,[2]; [9],3.33 mL
same,IC50,[3]; [10],3.5e-07 M
same,IC50,[4],185 nM
same,Effect on calmodulin induced PFK inactivation: Activity (U mg-1),[5],10.9 U mg-1
same,anti-calmodulin activity in the PFK assay (in words),[5],does not display anti-calmodulin activity
same,Anti-calmodulin activity: Efficiency (%),[5],5%
